Measurements reported in paper PMC12295927, “Design, Synthesis, and Testing of 1,2,3-Triazolo-Quinobenzothiazine Hybrids for Cytotoxic and Immunomodulatory Activity” (International Journal of Molecular Sciences, 2025).
Where two headings read alike, the source gives them in different places.

Columns and labels:
IL6 gene = assay: RT-qPCR IL6 gene expression in BEAS-2B; format: cell-based, Human; conditions: 24 h; for fold induction at 100 µM: Homo sapiens, reference gene RPL41, vs untreated control, read-out: Relative level of expression, IL6 gene
Experimental: (§1) Real-time polymerase chain reaction was performed for the reference gene RPL41 (ribosomal protein L41) and the tested genes: BCL2, AIFM2, MDM2, IL6 and IL8. […] The BEAS-2B line was selected for the experiment. The expression level of selected genes was measured after 24 h of incubation with the tested substances MJ1–MJ20 at a concentration of 100 μM (Table 3).
(§2) The RT-qPCR experiment was performed for the BEAS-2B cell line. In this experiment, the IL6 and IL8 genes were studied and RPL41 was used as a reference gene (Figure 17 and Figure 18).
(§3) Gene expression studies used quantitative RT-qPCR to assess the effect of the tested quinobenzothiazines (MJ1–MJ20) on the expression of apoptosis-related genes (BCL2, AIFM2, MDM2) and pro-inflammatory cytokines (IL6, IL8) (Table 4).
(§4) BEAS-2B and HCT116 cells were seeded in 6-well plates at 2 × 10^5 cells per well and cultured in RPMI-1640 (BEAS-2B) or DMEM (HCT116) medium supplemented with 10% FBS and 1% penicillin/streptomycin at 37 °C, 5% CO2 and 95% humidity. After 24 h of incubation, the tested compounds were added at a concentration of 100 µM. After 24 h, the medium was removed from the cells, washed with PBS solution, 0.5 mL of trypsin was added per well and after 5 min it was neutralized with medium. The obtained cell suspension was centrifuged for 3 min at 2000 rpm, the supernatant was removed, and the obtained pellet was suspended in 400 µL of phenozol. Samples were frozen at −20 °C and stored until further experiment and RNA isolation.
(§5) Total RNA was isolated from cells using the A&A Biotechnology Total RNA Mini kit according to the manufacturer’s protocol. RNA quality and quantity were assessed using a NanoDrop 2000 spectrophotometer at 260/280 nm. Reverse transcription was performed using the protocol (EURx NG dART RT Kit) to obtain cDNA. After incubation, samples were placed in a freezer (−20 °C) and stored until further analysis.
(§6) The experiment was performed according to the protocol (Brilliant III Ultra Fast SYBR® Green QPCR Master Mix, Quick Reference Guide for the Bio-Rad CFX96 Real-Time PCR Detection System). RT-qPCR reaction was performed using specific primers for target genes (BCL2, AIFM2, MDM2, IL6, IL8). Gene expression was normalized to the expression of the reference gene RPL41. Reaction profiles and results were performed using Bio-Rad CFX Maestro 1.1 software from Bio-Rad. Analysis and calculations of the results obtained during RT-qPCR were performed using Microsoft Excel.
(§7) The results were analyzed using the R = 2^−ΔΔCt method, which allows for determining the relative level of gene expression (R) compared to the control. Each experiment was performed in three technical and biological replicates. RT-qPCR allowed for precise assessment of changes in the expression of genes related to the processes of apoptosis and inflammatory response under the influence of quinobenzothiazines, which allowed for identifying their potential mechanisms of action at the molecular level.

IL8 gene = assay: RT-qPCR IL8 gene expression in BEAS-2B; format: cell-based; conditions: Homo sapiens, 24 h, reference gene RPL41, vs untreated control, read-out: Relative level of expression, IL8 gene
Experimental: as §1, §2, §3, §4, §5, §6, §7

MDM2 gene = assay: RT-qPCR MDM2 gene expression in BEAS-2B; format: cell-based, Human; conditions: Homo sapiens, 24 h, reference gene RPL41, vs untreated control, read-out: Relative level of expression, MDM2 gene
Experimental: as §1
The RT-qPCR experiment was performed for the BEAS-2B cell line. In this experiment, the MDM2 gene was studied and RPL41 was used as reference gene (Figure 15).
as §3, §4, §5, §6, §7

BEAS-2B = assay: Alamar Blue cytotoxicity test, BEAS-2B; format: cell-based, Human; conditions: 24 h incubation, read-out: IC50 values for BEAS-2B line
Experimental: The cytotoxicity of the tested chemical compounds MJ1–MJ20 was tested using the Alamar Blue test. The experiment was conducted on cell lines BEAS-2B (Figure 7), HCT116 (Figure 8), U2OS (Figure 9), MCF7 (Figure 10), SH-SY5Y (Figure 11), NHDF (Figure 12), and A549 (Figure 13). Cells were seeded in 96-well plates and incubated with the tested compounds for 24 h. The test result is the IC50 parameter, which is a measure of cytotoxic activity expressed by the concentration of the substance that causes the death of half of the analyzed cells compared to the control.
In cytotoxicity studies, the Alamar Blue test was used, which is based on the ability of living cells to reduce the non-fluorescent dye resazurin to fluorescent resorufin, which reflects the metabolic activity of cells. BEAS-2B, NHDF, HCT116, MCF7, A549, SH-SY5Y and U2OS cell lines were cultured under standard conditions, in DMEM medium supplemented with 10% FBS and 1% penicillin/streptomycin, at 37 °C, 5% CO2 and 95% humidity. Cells were seeded in 96-well plates at 1 × 10^4 cells per well and incubated for 24 h. Then, the tested compounds (MJ1–MJ20) were added at different concentrations (from 6.25 µM to 100 µM). The control contained cells untreated with the tested compounds. After 24 h of incubation, 10 µL of Alamar Blue solution was added to each well and incubated for another 2–4 h under the same conditions. The signal was measured spectrophotometrically at wavelengths of 570 nm (for resorufin) and 600 nm (for resazurin) or optionally fluorimetrically, using an excitation maximum of 570 nm and an emission maximum of 585 nm. The results were presented as percentage of cell survival relative to the control, calculating the ratio of absorbance or fluorescence of the sample to the control value. The Alamar Blue assay, due to its sensitivity and non-toxicity, allows for an accurate assessment of metabolic activity and cell survival in response to the tested quinobenzothiazines.

BCL2 gene = assay: RT-qPCR BCL2 gene expression in BEAS-2B; format: cell-based, Human; conditions: 24 h; for fold induction at 100 µM: Homo sapiens, reference gene RPL41, vs untreated control, read-out: Relative level of expression, BCL2 gene
Experimental: as §1
The RT-qPCR experiment was performed for the BEAS-2B cell line. In this experiment, the BCL2 gene was studied, and RPL41 was used as the reference gene (Figure 14).
as §3, §4, §5, §6, §7

AIFM2 gene = assay: RT-qPCR AIFM2 gene expression in BEAS-2B; format: cell-based, Human; conditions: Homo sapiens, 24 h, reference gene RPL41, vs untreated control, read-out: Relative level of expression, AIFM2 gene
Experimental: as §1
The RT-qPCR experiment was performed for the BEAS-2B cell line. In this experiment, the AIFM2 gene was studied and RPL41 was used as reference gene (Figure 16).
as §3, §4, §5, §6, §7

SMILES	fold induction at 100 µM (IL6 gene)	fold induction at 100 µM (IL8 gene)	fold induction at 100 µM (MDM2 gene)	IC50 (BEAS-2B; Homo sapiens, 24 h) [µM]	fold induction at 100 µM (BCL2 gene)	fold induction at 100 µM (AIFM2 gene)	IL6 expression increase (IL6 gene; 100 μM, compared to control) [fold]	BCL2 expression increase (BCL2 gene; 100 μM, compared to control) [fold]	IC50 (BEAS-2B) [µM]
N#Cc1ccc(Cn2cc(CN3c4ccc(Cl)cc4Sc4cc5ccccc5nc43)nn2)cc1 [MJ14, 4-((4-((9-Chloroquino[3,2-b]benzo[1,4]thiazin-6-yl)methyl)-1H-1,2,3-triazol-1-yl)methyl)-benzonitrile]	8.8	3.6	3.7	78.4	43	1.2			
Fc1ccc2c(c1)Sc1cc3ccccc3nc1N2Cc1cn(CSc2ccccc2)nn1 [MJ10, 9-Fluoro-6-((1-((phenylthio)methyl)-1H-1,2,3-triazol-4-yl)methyl)-quino[3,2-b]-benzo[1,4]thiazine]	5.6	5.7	3.6	72.3	10.6	3.1			
CSc1ccc2c(c1)Sc1cc3ccccc3nc1N2Cc1cn(Cc2ccc(Cl)cc2)nn1 [MJ18, 9-Methylthio-6-[(1-(4-chlorobenzyl)-1H-1,2,3-triazol-4-yl)methyl]-quino[3,2-b]-benzo[1,4]thiazine]	20.5	4	7.1	74.1	41.5	1.7			
N#Cc1ccc(Cn2cc(CN3c4ccc(F)cc4Sc4cc5ccccc5nc43)nn2)cc1 [MJ9, 4-((4-((9-Fluoroquino [3,2-b]benzo[1,4]thiazin-6-yl)methyl)-1H-1,2,3-triazol-1-yl)methyl)-benzonitrile]	4.3	0.9	5.6	73	9.8	4.5			
Clc1ccc2c(c1)Sc1cc3ccccc3nc1N2Cc1cn(Cc2ccccc2)nn1 [MJ11, 9-Chloro-6-[(1-benzyl-1H-1,2,3-triazol-4-yl)-methyl]-quino[3,2-b]benzo[1,4]thiazine]	5.7	1.4	4.6	88.1	49.9	0.8			
Fc1ccc2c(c1)Sc1cc3ccccc3nc1N2Cc1cn(Cc2ccccc2)nn1 [MJ6, 9-Fluoro-6-[(1-benzyl-1H-1,2,3-triazol-4-yl)-methyl]-quino[3,2-b]benzo[1,4]thiazine]	3.2	0.1	5.1	72.9	8.5	1.8			
CSc1ccc2c(c1)Sc1cc3ccccc3nc1N2Cc1cn(CSc2ccccc2)nn1 [MJ20, 9-Methylthio-6-((1-((phenylthio)methyl)-1H-1,2,3-triazol-4-yl)methyl)-quino[3,2-b]benzo[1,4]thiazine]	83.4	6.6	7.7	83.7	69.4	2.8	83.4	69.4	
Clc1ccc(Cn2cc(CN3c4ccccc4Sc4cc5ccccc5nc43)nn2)cc1 [MJ3, 6-[(1-(4-Chlorobenzyl)-1H-1,2,3-triazol-4-yl)methyl]-quino[3,2-b]benzo[1,4]thiazine]	1.3	0.3	5.9	75.4	5.7	1.3			
CSc1ccc2c(c1)Sc1cc3ccccc3nc1N2Cc1cn(Cc2ccccc2)nn1 [MJ16, 9-Methylthio-6-[(1-benzyl-1H-1,2,3-triazol-4-yl)-methyl]-quino[3,2-b]benzo[1,4]thiazine]	11.4	5.1	6.1	84.7	41.3	1.3			
Fc1ccc(Cn2cc(CN3c4ccc(Cl)cc4Sc4cc5ccccc5nc43)nn2)cc1 [MJ12, 9-Chloro-6-((1-(4-fluorobenzyl)-1H-1,2,3-triazol-4-yl)methyl)-quino[3,2-b]benzo-[1,4]thiazine]	6.2	4.9	3.8	75.6	25.9	0.6			75.6
Clc1ccc(Cn2cc(CN3c4ccc(Cl)cc4Sc4cc5ccccc5nc43)nn2)cc1 [MJ13, 9-Chloro-6-[(1-(4-chlorobenzyl)-1H-1,2,3-triazol-4-yl)methyl]-quino[3,2-b]benzo-[1,4]thiazine]	6.5	1.7	2.3	85.2	23.4	0.3			
c1ccc(SCn2cc(CN3c4ccccc4Sc4cc5ccccc5nc43)nn2)cc1 [MJ5, 6-((1-((Phenylthio)methyl)-1H-1,2,3-triazol-4-yl)methyl)-quino[3,2-b]benzo[1,4]thiazine]	2.7	0.1	4.8	73	5	1.9			
Fc1ccc(Cn2cc(CN3c4ccc(F)cc4Sc4cc5ccccc5nc43)nn2)cc1 [MJ7, 9-Fluoro-6-((1-(4-fluorobenzyl)-1H-1,2,3-triazol-4-yl)methyl)-quino[3,2-b]benzo[1,4]thiazine]	3.5	2.6	4.6	73.6	7.5	3.3			
